Reference: article PMC11061149, “Protein mimetic 2D FAST rescues alpha synuclein aggregation mediated early and post disease Parkinson’s phenotypes” (Nature Communications, 2024)
Several values for one entry are separate records, joined by “and”; a condition that tells them apart may be missing. Identical values can stand only once.

What was measured:
[1] = tested on: HEK293 cells stably expressing αS-A53T-YFP; assay: ProteoStat dye assay and confocal imaging, ligand post treatment, αS fibers templated intracellular aggregation; format: cell-based, human
Method: To test the antagonist activity of NS163 against intracellular αS aggregation, we utilized HEK293 cells, which stably express αS-A53T-YFP[23],[24],[50]. The endogenous monomeric αS-A53T-YFP template into fibers when transfected with exogenously added αS fibers in the presence of Lipofectamine 3000 (Fig. 3a)[23],[24],[50]. In this assay, preformed fibers of αS (5 µM monomer concentration) were introduced to the HEK cells, followed by the introduction of NS163 to the cells after 8 h, which is the time required for the internalization of aS fibers, as we have shown recently. The HEK cells were incubated for an additional […], which is the total time (24 h) required for the complete maturation of aS inclusions in the HEK cells. To test the effect of the NS163 on the intracellular inclusions (αS-A53T-YFP), we used confocal imaging and a ProteoStat dye-based assay recently developed in our lab[24]. […] NS163 was able to reduce the intracellular inclusions of αS by 76% and 90% at 10 µM and 25 µM, respectively, measured using the ProteoStat dye-based assay (Fig. 5h, +NS163). […] To test their antagonist activity against intracellular αS aggregation, we first determined the cell permeability of the tripyridyls using the PAMPA (Fig. 5a, Supplementary Fig. 18a). […]

[2] = biological target: T1, αS fibers-catalyzed aggregation of αS (Homo sapiens, UniProt P37840); assay: αS fibers-catalyzed aggregation of αS, ThT kinetic assay; format: biochemical
T1 construct: made in house; host or cells: E. coli BL21(DE3)

Cc1ccc(NC(=O)c2ccc(NC(=O)c3ccc([N+](=O)[O-])c(NCCc4c[nH]c5ccccc45)n3)c(NCC3CCCCC3)n2)c(OCC(=O)O)n1 [NS132]
ProteoStat dye intensity (raw), individual trials ([1]; 5 μM αS fibers, ligand 10 uM added after 8 h): 108 and 126 and 118 and 122 and 111 and 132 and 128 and 121 and 105 and 116 and 120 and 113
reduction of intracellular inclusions of αS (ProteoStat) ([1]; ligand 10 µM added 8 h after 5 µM αS fibers): 47%
ThT fluorescence intensity, Average ([2]; 100 µM αS + αS fibers (20% monomer conc.) + equimolar ligand, time 0 hr): 181.667
effect on αS fibers-catalyzed aggregation of αS, in words ([2]; 100 μM αS, preformed αS fibers 20%, equimolar ligand): wholly suppressed
ThT fluorescence intensity, Average ([2]; seeded, equimolar ligand, time 3 hr): 168
ThT fluorescence intensity, Average ([2]; seeded, equimolar ligand, time 6 hr): 160.333
ThT fluorescence intensity, Average ([2]; seeded, equimolar ligand, time 9 hr): 164
ThT fluorescence intensity, Average ([2]; seeded, equimolar ligand, time 12 hr): 200.667
ThT fluorescence intensity, Average ([2]; seeded, equimolar ligand, time 24 hr): 255
ThT fluorescence intensity, Average ([2]; seeded, equimolar ligand, time 36 hr): 243.333
ThT fluorescence intensity, Average ([2]; seeded, equimolar ligand, time 48 hr): 299.333
